Laboratory results taken from patent publication US9428469B2, “Antiviral compounds” (priority 2013, dated 2016).
Counter-ions that a name gives are not always drawn.

Experiments:
HCVpp GT-1b = assay: microbe, parasite or virus in culture; assay type: cell-based, Hepatitis C virus (GT1b Con1 strain); conditions: Hepatitis C virus, GT1B, 72 h, read-out: HCVpp GT-1b (EC50, μM)
VSVpp = assay: microbe, parasite or virus in culture; assay type: cell-based; conditions: Vesicular stomatitis virus, 72 h, read-out: VSVpp (EC50, μM)

FC(F)(F)c1ccc(CNc2nc(Nc3cc(Cl)c(Br)c(C(F)(F)F)c3)n[nH]2)cc1 [Compound 1, N3-(4-bromo-3-chloro-5-(trifluoromethyl)phenyl)-N5-(4-(trifluoromethyl)benzyl)-1H-1,2,4-triazole-3,5-diamine]
EC50 (HCVpp GT-1b): 1.35 µM | EC50 (VSVpp): 13.7 µM

Clc1cc(Cl)cc(Nc2n[nH]c(NCc3ccco3)n2)c1 [Compound 2, N3-(3,5-dichlorophenyl)-N5-(furan-2-ylmethyl)-1H-1,2,4-triazole-3,5-diamine]
EC50 (HCVpp GT-1b): 2.58 µM | EC50 (VSVpp): 11.9 µM

Cc1ccc(CNc2nc(Nc3cc(Cl)cc(Cl)c3)n[nH]2)o1 [Compound 3, N3-(3,5-dichlorophenyl)-N5-((5-methylfuran-2-yl)methyl)-1H-1,2,4-triazole-3,5-diamine]
EC50 (HCVpp GT-1b): 3.27 µM | EC50 (VSVpp): 19.3 µM

FC(F)(F)c1ccc(Cl)cc1CNc1nc(Nc2cc(Cl)cc(Cl)c2)n[nH]1 [Compound 4, N5-(5-chloro-2-(trifluoromethyl)benzyl)-N3-(3,5-dichlorophenyl)-1H-1,2,4-triazole-3,5-diamine]
EC50 (HCVpp GT-1b): 4.66 µM | EC50 (VSVpp): 13.2 µM

Clc1ccc(CNc2nc(Nc3cc(Cl)cc(Cl)c3)n[nH]2)nc1 [Compound 5, N5-((5-chloropyridin-2-yl)methyl)-N3-(3,5-dichlorophenyl)-1H-1,2,4-triazole-3,5-diamine]
EC50 (HCVpp GT-1b): 1.57 µM | EC50 (VSVpp): 33.6 µM

CC(C)(C)OC(=O)Nc1ccc(CNc2nc(Nc3cc(Cl)cc(Cl)c3)n[nH]2)cn1 [Compound 6, Tert-butyl 5-((3-(3,5-dichlorophenylamino)-1H-1,2,4-triazol-5-ylamino)methyl)pyridin-2-ylcarbamate]
EC50 (HCVpp GT-1b): 7.81 µM | EC50 (VSVpp): 14.5 µM

CC(C)(C)OC(=O)c1ccc(CNc2nc(Nc3cc(Cl)cc(Cl)c3)n[nH]2)cc1 [Compound 7, tert-butyl 4-((3-(3,5-dichlorophenylamino)-1H-1,2,4-triazol-5-ylamino)methyl)benzoate]
EC50 (HCVpp GT-1b): 0.414 µM | EC50 (VSVpp): 33.3 µM

CC(C)(C)OC(=O)c1ccccc1CNc1nc(Nc2cc(Cl)cc(Cl)c2)n[nH]1 [Compound 8, tert-butyl 2-((3-(3,5-dichlorophenylamino)-1H-1,2,4-triazol-5-ylamino)methyl)benzoate]
EC50 (HCVpp GT-1b): 9.99 µM | EC50 (VSVpp): 22 µM

Clc1cc(Cl)cc(Nc2n[nH]c(NCc3ccccc3)n2)c1 [Compound 9, N5-benzyl-N3-(3,5-dichlorophenyl)-1H-1,2,4-triazole-3,5-diamine]
EC50 (HCVpp GT-1b): 1.72 µM | EC50 (VSVpp): 22.8 µM

Nc1ccc(CNc2nc(Nc3cc(Cl)cc(Cl)c3)n[nH]2)cn1 [Compound 10, N5-((6-aminopyridin-3-yl)methyl)-N3-(3,5-dichlorophenyl)-1H-1,2,4-triazole-3,5-diamine]
EC50 (HCVpp GT-1b): 58.3 µM | EC50 (VSVpp): 100 µM

Cn1cc(CNc2nc(Nc3cc(Cl)cc(Cl)c3)n[nH]2)cn1 [Compound 11, N3-(3,5-dichlorophenyl)-N5-((1-methyl-1H-pyrazol-4-yl)methyl)-1H-1,2,4-triazole-3,5-diamine]
EC50 (HCVpp GT-1b): 23.9 µM | EC50 (VSVpp): 25.7 µM

O=C(O)c1ccc(CNc2nc(Nc3cc(Cl)cc(Cl)c3)n[nH]2)cc1 [Compound 12, 4-((3-(3,5-dichlorophenylamino)-1H-1,2,4-triazol-5-ylamino)methyl)benzoic acid; trifluoroacetic acid salt]
EC50 (HCVpp GT-1b): 19.5 µM | EC50 (VSVpp): 100 µM

O=C(O)c1cccc(CNc2nc(Nc3cc(Cl)cc(Cl)c3)n[nH]2)c1 [Compound 13, 3-((3-(3,5-dichlorophenylamino)-1H-1,2,4-triazol-5-ylamino)methyl)benzoic acid; trifluoroacetic acid salt]
EC50 (HCVpp GT-1b): 37.5 µM | EC50 (VSVpp): 78.1 µM

O=C(O)c1ccccc1CNc1nc(Nc2cc(Cl)cc(Cl)c2)n[nH]1 [Compound 14, 2-((3-(3,5-dichlorophenylamino)-1H-1,2,4-triazol-5-ylamino)methyl)benzoic acid; trifluoroacetic acid salt]
EC50 (HCVpp GT-1b): 96 µM | EC50 (VSVpp): 100 µM

CS(=O)(=O)c1ccc(CNc2nc(Nc3cc(Cl)cc(Cl)c3)n[nH]2)cc1 [Compound 15, N3-(3,5-dichlorophenyl)-N5-(4-(methylsulfonyl)benzyl)-1H-1,2,4-triazole-3,5-diamine]
EC50 (HCVpp GT-1b): 10 µM | EC50 (VSVpp): 10 µM

N#Cc1ccc(CNc2nc(Nc3cc(Cl)cc(Cl)c3)n[nH]2)cc1 [Compound 16, 4-((3-(3,5-dichlorophenylamino)-1H-1,2,4-triazol-5-ylamino)methyl)benzonitrile]
EC50 (HCVpp GT-1b): 3.34 µM | EC50 (VSVpp): 10 µM

CN(C)S(=O)(=O)c1ccc(CNc2nc(Nc3cc(Cl)cc(Cl)c3)n[nH]2)cc1 [Compound 17, 4-((3-(3,5-dichlorophenylamino)-1H-1,2,4-triazol-5-ylamino)methyl)-N,N-dimethylbenzenesulfonamide]
EC50 (HCVpp GT-1b): 10 µM | EC50 (VSVpp): 10 µM

FC(F)(F)c1ccc(CNc2nc(Nc3cc(Cl)cc(Cl)c3)n[nH]2)cc1Cl [Compound 19, N5-(3-chloro-4-(trifluoromethyl)benzyl)-N3-(3,5-dichlorophenyl)-1H-1,2,4-triazole-3,5-diamine]
EC50 (HCVpp GT-1b): 4.83 µM | EC50 (VSVpp): 10 µM

O=S(=O)(c1ccc(CNc2nc(Nc3cc(Cl)cc(Cl)c3)n[nH]2)cc1)N1CCCC1 [Compound 20, N3-(3,5-dichlorophenyl)-N5-(4-(pyrrolidin-1-ylsulfonyl)benzyl)-1H-1,2,4-triazole-3,5-diamine]
EC50 (HCVpp GT-1b): 10 µM | EC50 (VSVpp): 10 µM

O=S(=O)(c1ccc(CNc2nc(Nc3cc(Cl)cc(Cl)c3)n[nH]2)cc1)N1CCOCC1 [Compound 21, N3-(3,5-dichlorophenyl)-N5-(4-(morpholinosulfonyl)benzyl)-1H-1,2,4-triazole-3,5-diamine]
EC50 (HCVpp GT-1b): 10 µM | EC50 (VSVpp): 10 µM

N#Cc1c(Cl)cc(Nc2n[nH]c(NCc3ccc(C(F)(F)F)cc3)n2)cc1Cl [Compound 22, 2,6-dichloro-4-(5-(4-(trifluoromethyl)benzylamino)-1H-1,2,4-triazol-3-ylamino)benzonitrile]
EC50 (HCVpp GT-1b): 0.224 µM | EC50 (VSVpp): 5.3 µM

CC(C)(C)OC(=O)c1ccc(CNc2nc(Nc3cc(Cl)c(C#N)c(Cl)c3)n[nH]2)cc1 [Compound 23, tert-butyl 4-((3-(3,5-dichloro-4-cyanophenylamino)-1H-1,2,4-triazol-5-ylamino)methyl)benzoate]
EC50 (HCVpp GT-1b): 0.029 µM | EC50 (VSVpp): 10 µM

CC(C)S(=O)(=O)c1ccc(-c2c(Cl)cc(Nc3n[nH]c(NCc4ccc(C(=O)OC(C)(C)C)cc4)n3)cc2C(F)(F)F)cc1 [Compound 24, tert-butyl 4-((3-(2-chloro-4′-(isopropylsulfonyl)-6-(trifluoromethyl)biphenyl-4-ylamino)-1H-1,2,4-triazol-5-ylamino)methyl)benzoate]
EC50 (HCVpp GT-1b): 0.014 µM | EC50 (VSVpp): 6.2 µM

FC(F)(F)c1ccc(CNc2nc(Nc3cc(Cl)cc(Cl)c3)n[nH]2)cc1 [Compound 25, N*3*-(3,5-Dichloro-phenyl)-N*5*-(4-trifluoromethyl-benzyl)-1H-[1,2,4]triazole-3,5-diamine]
EC50 (HCVpp GT-1b): 0.046 µM | EC50 (VSVpp): 29.1 µM

FC(F)(F)c1cccc(CNc2nc(Nc3cc(Cl)cc(Cl)c3)n[nH]2)c1 [Compound 26, N*3*-(3,5-Dichloro-phenyl)-N*5*-(3-trifluoromethyl-benzyl)-1H-[1,2,4]triazole-3,5-diamine]
EC50 (HCVpp GT-1b): 0.709 µM | EC50 (VSVpp): 30.3 µM

CS(=O)(=O)N1CCC(Nc2nc(Nc3cc(Cl)cc(Cl)c3)n[nH]2)CC1 [Compound 27, N*3*-(3,5-Dichloro-phenyl)-N*5*-(1-methanesulfonyl-piperidin-4-yl)-1H-[1,2,4]triazole-3,5-diamine]
EC50 (HCVpp GT-1b): 59.6 µM | EC50 (VSVpp): 42.4 µM

CC(C)(C)OC(=O)N1CCC(Nc2nc(Nc3cc(Cl)cc(Cl)c3)n[nH]2)CC1 [Compound 28, 4-[5-(3,5-Dichloro-phenylamino)-2H-[1,2,4]triazol-3-ylamino]-piperidine-1-carboxylic acid tert-butyl ester]
EC50 (HCVpp GT-1b): 6.57 µM | EC50 (VSVpp): 11.1 µM

Clc1cc(Cl)cc(Nc2n[nH]c(NC3CCNCC3)n2)c1 [Compound 29, N*3*-(3,5-Dichloro-phenyl)-N*5*-piperidin-4-yl-1H-[1,2,4]triazole-3,5-diamine; compound with trifluoro-acetic acid]
EC50 (HCVpp GT-1b): 10 µM | EC50 (VSVpp): 10 µM

CC(=O)N1CCC(Nc2nc(Nc3cc(Cl)cc(Cl)c3)n[nH]2)CC1 [Compound 30, 1-{4-[5-(3,5-Dichloro-phenylamino)-2H-[1,2,4]triazol-3-ylamino]-piperidin-1-yl}-ethanone]
EC50 (HCVpp GT-1b): 95.8 µM | EC50 (VSVpp): 49.6 µM

Clc1cc(Cl)cc(Nc2n[nH]c(NCc3cncnc3)n2)c1 [Compound 31, N*3*-(3,5-Dichloro-phenyl)-N*5*-pyrimidin-5-ylmethyl-1H-[1,2,4]triazole-3,5-diamine]
EC50 (HCVpp GT-1b): 44.3 µM | EC50 (VSVpp): 100 µM
